Measured values: PubChem BioAssay (NCI)
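These data come from cells grown in 96-well plates and exposed to compound for 48 hours at five concentrations. Definition used: TGI = concentration required for complete inhibition of growth.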

How the values were obtained:
Test in all cases: NCI anticancer screen, dose series, 48 h
[1] = test system: CCRF-CEM leukemia
[2] = test system: SK-OV-3 ovarian
[3] = test system: SF-539 CNS
[4] = test system: SR leukemia
[5] = test system: KM20L2 colon
[6] = test system: 786-0 renal
[7] = test system: SF-268 CNS
[8] = test system: K-562 leukemia
[9] = test system: HOP-92 NSCLC
[10] = test system: MALME-3M melanoma
[11] = test system: NCI-H23 lung
[12] = test system: CAKI-1 renal
[13] = test system: HCC-2998 colon
[14] = test system: UACC-257 melanoma
[15] = test system: SW-620 colon
[16] = test system: HCT-116 colon
[17] = test system: A549 NSCLC
[18] = test system: M19-MEL melanoma
[19] = test system: KM12 colon
[20] = test system: HT29 colon
[21] = test system: HOP-62 NSCLC
[22] = test system: OVCAR-4 ovarian
[23] = test system: OVCAR-3 ovarian
[24] = test system: XF 498 CNS
[25] = test system: MOLT-4 leukemia
[26] = test system: DMS 273 small cell lung
[27] = test system: SF-295 CNS
[28] = test system: COLO 205 colon
[29] = test system: HL-60(TB) leukemia
[30] = test system: IGROV1 ovarian
[31] = test system: OVCAR-8 ovarian
[32] = test system: TK-10 renal
[33] = test system: SNB-78 CNS
[34] = test system: U251 CNS
[35] = test system: NCI-H226 lung
[36] = test system: ACHN renal
[37] = test system: RXF 393 renal
[38] = test system: SK-MEL-5 melanoma
[39] = test system: M14 melanoma
[40] = test system: UACC-62 melanoma
[41] = test system: UO-31 renal
[42] = test system: NCI-H522 lung
[43] = test system: DLD-1 colon
[44] = test system: A498 renal
[45] = test system: DMS 114 small cell lung
[46] = test system: SN12C renal
[47] = test system: HCT-15 colon
[48] = test system: SK-MEL-28 melanoma
[49] = test system: EKVX NSCLC
[50] = test system: RPMI-8226 leukemia
[51] = test system: NCI-H460 lung
[52] = test system: LXFL 529 NSCLC
[53] = test system: LOX IMVI melanoma
[54] = test system: OVCAR-5 ovarian
[55] = test system: SNB-19 CNS
[56] = test system: SNB-75 CNS
[57] = test system: HOP-18 NSCLC
[58] = test system: SK-MEL-2 melanoma
[59] = test system: RXF-631 renal

Measured: TGI

CC1CC(c2ccc([N+](=O)[O-])cc2)=Nc2ccccc2S1 (stereo not given)
31 µM: [2]
32 µM: [37]
26.7 µM: [18]
34.2 µM: [11]
36.4 µM: [29]
26 µM: [52]
29.6 µM: [15]
60.1 µM: [17]
70.7 µM: [24]
83.5 µM: [12]
42.4 µM: [38]
20.6 µM: [53]
29.5 µM: [6]
27.2 µM: [39]
76.1 µM: [32] | [54]
32.2 µM: [48]
32.9 µM: [3]
46.6 µM: [35]
28.4 µM: [34]
40.3 µM: [8]
39.1 µM: [1]
24.9 µM: [4] | [41]
44.2 µM: [36]
55.1 µM: [28]
25.3 µM: [19]
23.7 µM: [23]
89.7 µM: [9]
39.5 µM: [55]
41.9 µM: [42]
48.6 µM: [49]
25.5 µM: [43]
41.7 µM: [26]
45.3 µM: [27]
36.1 µM: [44]
3.56 µM: [16]
7.21 µM: [50]
38.1 µM: [13]
28.8 µM: [40]
38.9 µM: [7]
35.4 µM: [30]
43.9 µM: [22]
35.1 µM: [46]
35.9 µM: [14]
36.6 µM: [5] | [45]
> 100 µM: [10] | [21] | [31] | [33] | [51] | [56] | [57]
26.3 µM: [20]
29.3 µM: [47]
63.6 µM: [25]

O=C(NN1C(=O)CS(=O)(=O)C1c1cccc(F)c1)c1ccncc1 (stereo not given)
> 100 µM: [2] | [4] | [6] | [7] | [9] | [10] | [12] | [13] | [14] | [15] | [16] | [17] | [19] | [20] | [21] | [58] | [22] | [24] | [25] | [26] | [27] | [28] | [29] | [32] | [35] | [36] | [37] | [38] | [39] | [42] | [43] | [44] | [45] | [46] | [47] | [48] | [59] | [50] | [51] | [52] | [53] | [54] | [55] | [56]

CC(CC[C@@H](C)C1CCC2[C@@H]3CC(O)C4CC(O)[C@@H](O)C[C@]4(C)C3CC[C@@]21C)C(C)(C)C (stereo not given in full)
> 100 µM: [1] | [2] | [3] | [4] | [5] | [6] | [7] | [8] | [9] | [10] | [11] | [12] | [13] | [14] | [15] | [16] | [17] | [18] | [19] | [20] | [21] | [58] | [22] | [23] | [24] | [25] | [26] | [27] | [28] | [29] | [30] | [31] | [32] | [33] | [34] | [35] | [36] | [37] | [38] | [39] | [40] | [41] | [43] | [44] | [45] | [46] | [47] | [48] | [49] | [50] | [51] | [52] | [53] | [54] | [55] | [56] | [57]

CCOC(=O)C(=O)Nc1ccc(C)c(C)c1
> 100 µM: [1] | [2] | [3] | [5] | [6] | [7] | [8] | [10] | [11] | [12] | [13] | [14] | [16] | [17] | [18] | [20] | [21] | [58] | [22] | [25] | [26] | [27] | [29] | [30] | [32] | [33] | [34] | [35] | [36] | [37] | [38] | [39] | [40] | [41] | [42] | [43] | [44] | [46] | [48] | [59] | [49] | [50] | [51] | [52] | [53] | [54] | [55] | [56]
20 µM: [15]
> 56.5 µM: [45]
> 93.8 µM: [19]
> 55.4 µM: [47]
32.2 µM: [28]

O=C1CCCCCCCCCCC(=O)N2CCOCCOCCN1Cc1cccc(n1)C2
> 100 µM: [1] | [2] | [3] | [5] | [6] | [7] | [8] | [10] | [11] | [12] | [13] | [14] | [15] | [16] | [17] | [18] | [19] | [20] | [21] | [58] | [22] | [23] | [25] | [26] | [27] | [28] | [30] | [31] | [32] | [33] | [34] | [35] | [36] | [37] | [38] | [39] | [40] | [41] | [42] | [43] | [44] | [45] | [46] | [47] | [48] | [59] | [49] | [50] | [51] | [52] | [53] | [54] | [55] | [56]
